# Experiments:
# Assay in all cases: relative viability (nuclei count vs DMSO), 5 days (fraction); higher = more cells survive
# [1] = system: NCI-H2170
# Outline: (§1)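 Lung cancer cell lines in 1536-well plates got either a single drug or a fixed anchor-drug dose together with five library-drug doses (not always all listed) in √10 steps, by pin tool, on the day after seeding. Nuclei were counted after 5 days, and relative viability is the treated-to-vehicle ratio of nuclei counts. Values are medians of duplicate plates.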
# [2] = system: PC-3 [JPC-3]
# Outline: as §1
# [3] = system: SK-MES-1
# Outline: as §1
# [4] = system: H3255
# Outline: as §1
# [5] = system: NCI-H1666
# Outline: as §1
# [6] = system: EMC-BAC-2
# Outline: as §1
# [7] = system: NCI-H1563
# Outline: as §1
# [8] = system: NCI-H1975
# Outline: as §1
# [9] = system: HCC-366
# Outline: as §1
# [10] = system: NCI-H520
# Outline: as §1
# [11] = system: NCI-H596
# Outline: as §1
# [12] = system: LOU-NH91
# Outline: as §1
# [13] = system: COR-L 105
# Outline: as §1
# [14] = system: EKVX
# Outline: as §1
# [15] = system: NCI-H23
# Outline: as §1
# [16] = system: A-427
# Outline: as §1
# [17] = system: NCI-H441
# Outline: as §1
# [18] = system: NCI-H1755
# Outline: as §1
# [19] = system: LK-2
# Outline: as §1
# [20] = system: NCI-H1734
# Outline: as §1
smiles,measurement,setting,value
Nc1ccn([C@@H]2O[C@H](CO)[C@@H](O)[C@@H]2O)c(=O)n1 [Cytarabine] + Cc1nc(NC(=O)N2CCC[C@H]2C(N)=O)sc1-c1ccnc(C(C)(C)C(F)(F)F)c1 [Alpelisib] (partner 2 µM),relative viability,[1]; first compound 0.01581 µM,0.606
same,relative viability,[1]; first compound 0.05 µM,0.562
same,relative viability,[1]; first compound 0.1581 µM,0.389
same,relative viability,[1]; first compound 0.5 µM,0.314
same,relative viability,[2]; first compound 0.005 µM,0.95
same,relative viability,[2]; first compound 0.01581 µM,0.926
same,relative viability,[2]; first compound 0.05 µM,0.927
same,relative viability,[2]; first compound 0.1581 µM,0.634
same,relative viability,[2]; first compound 0.5 µM,0.65
same,relative viability,[3]; first compound 0.005 µM,0.702
same,relative viability,[3]; first compound 0.01581 µM,0.688
same,relative viability,[3]; first compound 0.05 µM,0.393
same,relative viability,[3]; first compound 0.1581 µM,0.243
same,relative viability,[3]; first compound 0.5 µM,0.21
same,relative viability,[4]; first compound 0.005 µM,0.757
same,relative viability,[4]; first compound 0.01581 µM,0.673
same,relative viability,[4]; first compound 0.05 µM,0.566
same,relative viability,[4]; first compound 0.1581 µM,0.524
same,relative viability,[4]; first compound 0.5 µM,0.469
same,relative viability,[5]; first compound 0.005 µM,0.751
same,relative viability,[5]; first compound 0.01581 µM,0.855
same,relative viability,[5]; first compound 0.05 µM,0.647
same,relative viability,[5]; first compound 0.1581 µM,0.279
same,relative viability,[5]; first compound 0.5 µM,0.35
same,relative viability,[6]; first compound 0.005 µM,0.64
same,relative viability,[6]; first compound 0.01581 µM,0.658
same,relative viability,[6]; first compound 0.05 µM,0.598
same,relative viability,[6]; first compound 0.1581 µM,0.193
same,relative viability,[6]; first compound 0.5 µM,0.182
same,relative viability,[7]; first compound 0.005 µM,0.938
same,relative viability,[7]; first compound 0.01581 µM,1.02
same,relative viability,[7]; first compound 0.05 µM,0.845
same,relative viability,[7]; first compound 0.1581 µM,0.888
same,relative viability,[7]; first compound 0.5 µM,0.663
same,relative viability,[8]; first compound 0.005 µM,0.442
same,relative viability,[8]; first compound 0.01581 µM,0.761
same,relative viability,[8]; first compound 0.05 µM,0.801
same,relative viability,[8]; first compound 0.1581 µM,0.418
same,relative viability,[8]; first compound 0.5 µM,0.313
same,relative viability,[9]; first compound 0.005 µM,0.281
same,relative viability,[9]; first compound 0.01581 µM,0.228
same,relative viability,[9]; first compound 0.05 µM,0.104
same,relative viability,[9]; first compound 0.1581 µM,0.047
same,relative viability,[9]; first compound 0.5 µM,0.019
same,relative viability,[10]; first compound 0.005 µM,0.697
same,relative viability,[10]; first compound 0.01581 µM,0.754
same,relative viability,[10]; first compound 0.05 µM,0.858
same,relative viability,[10]; first compound 0.1581 µM,0.688
same,relative viability,[10]; first compound 0.5 µM,0.447
same,relative viability,[11]; first compound 0.005 µM,0.5
same,relative viability,[11]; first compound 0.01581 µM,0.567
same,relative viability,[11]; first compound 0.05 µM,0.433
same,relative viability,[11]; first compound 0.1581 µM,0.418
same,relative viability,[11]; first compound 0.5 µM,0.315
same,relative viability,[12]; first compound 0.005 µM,0.708
same,relative viability,[12]; first compound 0.01581 µM,0.695
same,relative viability,[12]; first compound 0.05 µM,0.603
same,relative viability,[12]; first compound 0.1581 µM,0.425
same,relative viability,[12]; first compound 0.5 µM,0.462
same,relative viability,[13]; first compound 0.005 µM,0.86
same,relative viability,[13]; first compound 0.01581 µM,1.07
same,relative viability,[13]; first compound 0.05 µM,0.675
same,relative viability,[13]; first compound 0.1581 µM,0.444
same,relative viability,[13]; first compound 0.5 µM,0.355
same,relative viability,[14]; first compound 0.005 µM,0.867
same,relative viability,[14]; first compound 0.01581 µM,0.893
same,relative viability,[14]; first compound 0.05 µM,0.818
same,relative viability,[14]; first compound 0.1581 µM,0.371
same,relative viability,[14]; first compound 0.5 µM,0.211
same,relative viability,[15]; first compound 0.005 µM,0.575
same,relative viability,[15]; first compound 0.01581 µM,0.547
same,relative viability,[15]; first compound 0.05 µM,0.373
same,relative viability,[15]; first compound 0.1581 µM,0.195
same,relative viability,[15]; first compound 0.5 µM,0.127
same,relative viability,[16]; first compound 0.005 µM,0.823
same,relative viability,[16]; first compound 0.01581 µM,0.518
same,relative viability,[16]; first compound 0.05 µM,0.226
same,relative viability,[16]; first compound 0.1581 µM,0.155
same,relative viability,[16]; first compound 0.5 µM,0.14
same,relative viability,[17]; first compound 0.005 µM,0.542
same,relative viability,[17]; first compound 0.01581 µM,0.49
same,relative viability,[17]; first compound 0.05 µM,0.391
same,relative viability,[17]; first compound 0.5 µM,0.165
same,relative viability,[18]; first compound 0.005 µM,0.925
same,relative viability,[18]; first compound 0.01581 µM,0.878
same,relative viability,[18]; first compound 0.05 µM,0.75
same,relative viability,[18]; first compound 0.1581 µM,0.244
same,relative viability,[18]; first compound 0.5 µM,0.273
same,relative viability,[19]; first compound 0.005 µM,0.641
same,relative viability,[19]; first compound 0.01581 µM,0.716
same,relative viability,[19]; first compound 0.05 µM,0.381
same,relative viability,[19]; first compound 0.1581 µM,0.276
same,relative viability,[19]; first compound 0.5 µM,0.245
same,relative viability,[20]; first compound 0.005 µM,0.39
same,relative viability,[20]; first compound 0.01581 µM,0.265
same,relative viability,[20]; first compound 0.05 µM,0.204
same,relative viability,[20]; first compound 0.1581 µM,0.139
